According to US20080194506A1, “Oligodeoxyribonuleotides of 4000-10000 Dalton for Treating” (Gentium SPA, priority 2005, published 2008):

Assays:
[1] = test system: transdifferentiating ELC (TuDC-ELC); experiment: Matrigel tube formation assay of TuDC-ELC; assay type: cell-based, human
From the text: We have recently developed a model for an alternative pathway of tumor angiogenesis. […] These endothelial-like cells (ELC) can transdifferentiate from tumor-associated dendritic cells under specific culture conditions (11). Briefly, monocytes are elutriated from leukapheresis products of healthy human blood donors and cultured in the presence of granulocyte-macrophage-colony stimulating factor (GM-CSF) and interleukin 4 (IL-4) to stimulate the differentiation of dendritic cells (DC). In addition, cells are treated with a cocktail specifically released by tumor cells (M-CSF, IL.6 and lactate, Gottfried et al., manuscript submitted) to promote the outgrowth of tumor-associated dendritic cells (TuDC).
These TuDC-ELC acquire the phenotype of endothelial cells (FactorVIII related Ag, vWF) while they lose monocytic (CD14) and dendritic cell markers (CD1a). […] In addition, they are able to form tube-like structures in Matrigel™, an in vitro assay of angiogenesis.
The Matrigel™ assay is one of the most popular and widely used in vitro angiogenesis assays (22). […]
By the help of a complimentary software from the NIH (Image J, http://rsb.info.nih.gov/ij/), we are able to quantify these effects, the total length of tubes and the area of the photograph are assessed, the microvascular density (MVD) is then given in total length/area [pix-1].

[2] = test system: human microvascular endothelial cells; experiment: In vitro angiogenesis assay: microvascular endothelial cells vascularizing through a layer of dermal fibroblasts; assay type: cell-based
Experimental: The aortic ring assay investigates macrovascular endothelial cells. But often, the tumor vasculature consists of microvascular endothelial cells. Therefore, a third in vitro angiogenesis assay was performed on the basis of microvascular endothelial cells vascularizing through a layer of dermal fibroblasts after 9-11 days of culture. These vessel-like structures can subsequently be visualized by staining for CD31 and vWF.

[3] = test system: human umbilical vene (HUVEC) endothelial cells; experiment: Matrigel tube formation assay of HUVEC; assay type: cell-based; details: single addition, 10 μg/mL, 7 days, FIG. 1A
Experimental: (§1) The Matrigel™ assay is one of the most popular and widely used in vitro angiogenesis assays (22). Matrigel™ is a semisolid synthetic mixture of extracellular matrix proteins which simulate the matrix that physiologically exist beneath the endothelial cell wall of a blood vessel. When the cells of question are seeded onto this matrix in microscopic chamber slides, they are activated to form tubular structures in 3-7 days, but only in the case that they have an endothelial phenotype. Therefore, this assay is suitable to show the potential capacity of cells to give rise to a tumor vasculature.
(§2) TuDC-ELC and mature, differentiated endothelial cells, [human umbilical vene (HUVEC) or microvascular endothelial cells (HMEC) as “stable” controls] were incubated in the presence or absence of oligotide or Defibrotide (10 μg/mL each) for 7 days.

[4] = test system: human gastric carcinoma; experiment: Dorsal skin chamber assay, human gastric carcinoma mouse model (Xenograft system); assay type: in vivo; details: treated vs control tumors; first data
From the text: We are currently performing a dorsal skin chamber assay (14) that investigates the effect of defibrotide in a highly vascularized human gastric carcinoma mouse model (Xenograft system). […] This set of experiments will be reproduced in due time.

[5] = test system: rat aorta endothelial cells; experiment: Aortic ring assay: sprouting of rat aorta endothelial cells in Matrigel; assay type: cell-based; details: applied on a daily basis, FIG. 2
[6] = test system: serum VEGF; experiment: Serum VEGF levels in patients after allogeneic stem cell transplantation; assay type: in vivo, human; details: cohort of 17 treated patients after allogeneic SCT
[7] = test system: microvascular endothelial cells (HMEC); experiment: Matrigel tube formation assay of HMEC; assay type: cell-based, human; details: single addition, 10 μg/mL, 7 days, FIG. 1A
Experimental: as §1, §2

[8] = test system: activated p70S6 kinase (p-p70S6); experiment: Western Blot analyses of activated p70S6 kinase; assay type: cell-based; details: preliminary evidence

defibrotide
tube formation of transdifferentiating ELC (TuDC-ELC) in Matrigel ([1]; 10 μg/mL, 7 days, clinical and subclinical concentrations): can inhibit tube formation | microvascular density (MVD) of TuDC-ELC, total length/area ([1]; Image J quantification, p=0.02 TTEST, FIG. 1B): significantly (p=0.02, TTEST) downregulates MVD | angiogenesis of human microvascular endothelial cells ([2]; daily application, 9-11 days of culture, FIGS. 3A and B): can also block angiogenesis | most effective concentration for blocking angiogenesis ([2]; human microvascular endothelial cells, FIGS. 3A and B): around 10 μg/mL | angiogenesis of human microvascular endothelial cells ([2]; single application): could not significantly block angiogenesis | tube formation potential of HUVEC [3]: not affected | microvascular density (MVD) of tumors [4]: lower than that of control tumors | prevention of sprouting of rat aorta endothelial cells in Matrigel [5]: ~100% | serum VEGF levels [6]: striking decline | tube formation potential of HMEC [7]: not affected | effect on activated p70S6 kinase (p-p70S6) [8]: downregulating effect
